Assay results as given in US20250147039A1, “Compounds for complexation of rare earth elements and/or s-, p-, d- block metals, their coordination compounds, peptide conjugates, method of their preparation and use thereof” (USTAV ORGANICKE CHEMIE A BIOCHEMIE AV CR V.V.I., priority 2021, published 2025).

Experiments:
[1] = Formation of 1,5-cz-[Ln(Lig)] from Lig and Ln^III ions (metal dependent click-zip), MOPS/NaOH buffer pH 7.0, analytical HPLC (Charts 1, 2); conditions: MOPS/NaOH buffer pH 7.0
[2] = Formation of 1,5-cz-[M(Lig)] from Lig and M^III ions (metal dependent click-zip) (Charts 4, 5); assay type: physicochemical; conditions: MOPS/NaOH buffer pH 7.0, TD728, TD827 in 50% i-PrOH; for conversion to 1,5-cz-[M(Lig)], Y^III: TD714 sum of two diastereoisomers
[3] = Alkali metal dependent formation of 1,5-cz-Lig and 1,4-cz-Lig isomers from Lig at pH 10.2 (Chart 14); assay type: physicochemical; conditions: Borate/(M^I)2CO3 buffer pH 10.2

C#CCNC(=O)CN1CCN(CC(=O)O)CCN(Cc2cc(-c3ccccc3)cc(CN=[N+]=[N-])n2)CCN(CC(=O)O)CC1 [TD425]
conversion to 1,5-cz-[Ln(Lig)], Ce^III ([1]; after 1 week at 80° C.): 0%
conversion to 1,5-cz-[Ln(Lig)], Ce^III ([1]; after 1 hour at 80° C.): 0%
conversion to 1,5-cz-[Ln(Lig)], Dy^III ([1]; after 1 week at 80° C.): 0%
conversion to 1,5-cz-[Ln(Lig)], Dy^III ([1]; after 1 hour at 80° C.): 0%
conversion to 1,5-cz-[Ln(Lig)], Er^III ([1]; after 1 week at 80° C.): 0%
conversion to 1,5-cz-[Ln(Lig)], Er^III ([1]; after 1 hour at 80° C.): 0%
conversion to 1,5-cz-[Ln(Lig)], Eu^III ([1]; after 1 week at 80° C.): 0%
conversion to 1,5-cz-[Ln(Lig)], Eu^III ([1]; after 1 hour at 80° C.): 0%
conversion to 1,5-cz-[Ln(Lig)], Gd^III ([1]; after 1 week at 80° C.): 0%
conversion to 1,5-cz-[Ln(Lig)], Gd^III ([1]; after 1 hour at 80° C.): 0%
conversion to 1,5-cz-[Ln(Lig)], Ho^III ([1]; after 1 week at 80° C.): 0%
conversion to 1,5-cz-[Ln(Lig)], Ho^III ([1]; after 1 hour at 80° C.): 0%
conversion to 1,5-cz-[Ln(Lig)], La^III ([1]; after 1 week at 80° C.): 0%
conversion to 1,5-cz-[Ln(Lig)], La^III ([1]; after 1 hour at 80° C.): 0%
conversion to 1,5-cz-[Ln(Lig)], Lu^III ([1]; after 1 week at 80° C.): 0%
conversion to 1,5-cz-[Ln(Lig)], Lu^III ([1]; after 1 hour at 80° C.): 0%
conversion to 1,5-cz-[Ln(Lig)], Nd^III ([1]; after 1 week at 80° C.): 0%
conversion to 1,5-cz-[Ln(Lig)], Nd^III ([1]; after 1 hour at 80° C.): 0%
conversion to 1,5-cz-[Ln(Lig)], Pr^III ([1]; after 1 week at 80° C.): 0%
conversion to 1,5-cz-[Ln(Lig)], Pr^III ([1]; after 1 hour at 80° C.): 0%
conversion to 1,5-cz-[Ln(Lig)], Sm^III ([1]; after 1 week at 80° C.): 0%
conversion to 1,5-cz-[Ln(Lig)], Sm^III ([1]; after 1 hour at 80° C.): 0%
conversion to 1,5-cz-[Ln(Lig)], Tb^III ([1]; after 1 week at 80° C.): 0%
conversion to 1,5-cz-[Ln(Lig)], Tb^III ([1]; after 1 hour at 80° C.): 0%
conversion to 1,5-cz-[Ln(Lig)], Tm^III ([1]; after 1 week at 80° C.): 0%
conversion to 1,5-cz-[Ln(Lig)], Tm^III ([1]; after 1 hour at 80° C.): 0%
conversion to 1,5-cz-[Ln(Lig)], Yb^III ([1]; after 1 week at 80° C.): 0%
conversion to 1,5-cz-[Ln(Lig)], Yb^III ([1]; after 1 hour at 80° C.): 0%
conversion to 1,5-cz-[M(Lig)], Sc^III ([2]; 1 week at 80° C.): 0%
conversion to 1,5-cz-[M(Lig)], Y^III ([2]; 1 week at 80° C.): 0%
conversion to 1,5-cz-[M(Lig)], Sc^III ([2]; 1 hour at 80° C.): 0%
conversion to 1,5-cz-[M(Lig)], Y^III ([2]; 1 hour at 80° C.): 0%
conversion to 1,4-cz-Lig isomer, Cs^I ([3]; A: 1 hour at 80° C.): 1%
conversion to 1,4-cz-Lig isomer, K^I ([3]; A: 1 hour at 80° C.): 1%
conversion to 1,4-cz-Lig isomer, Li^I ([3]; A: 1 hour at 80° C.): 0%
conversion to 1,4-cz-Lig isomer, Na^I ([3]; A: 1 hour at 80° C.): 0%
conversion to 1,4-cz-Lig isomer, Rb^I ([3]; A: 1 hour at 80° C.): 1%
conversion to 1,5-cz-Lig isomer, Cs^I ([3]; A: 1 hour at 80° C.): 1%
conversion to 1,5-cz-Lig isomer, K^I ([3]; A: 1 hour at 80° C.): 0%
conversion to 1,5-cz-Lig isomer, Li^I ([3]; A: 1 hour at 80° C.): 0%
conversion to 1,5-cz-Lig isomer, Na^I ([3]; A: 1 hour at 80° C.): 1%
conversion to 1,5-cz-Lig isomer, Rb^I ([3]; A: 1 hour at 80° C.): 1%
conversion to 1,4-cz-Lig isomer, Cs^I ([3]; B: 1 day at 80° C.): 10%
conversion to 1,4-cz-Lig isomer, K^I ([3]; B: 1 day at 80° C.): 10%
conversion to 1,4-cz-Lig isomer, Na^I ([3]; B: 1 day at 80° C.): 1%
conversion to 1,4-cz-Lig isomer, Rb^I ([3]; B: 1 day at 80° C.): 10%
conversion to 1,5-cz-Lig isomer, Cs^I ([3]; B: 1 day at 80° C.): 11%
conversion to 1,5-cz-Lig isomer, K^I ([3]; B: 1 day at 80° C.): 10%
conversion to 1,5-cz-Lig isomer, Na^I ([3]; B: 1 day at 80° C.): 9%
conversion to 1,5-cz-Lig isomer, Rb^I ([3]; B: 1 day at 80° C.): 10%
